Source: US20100210682A1, “Repeated Dosing of TRPV1 Antagonists” (ABBOTT LABORATORIES, priority 2009, published 2010)
Converted amounts (≈) assume the structure as drawn. Where two headings read alike, the source gives them in different places. Marks after values point to notes of the source that are not given here.

Assays:
[1] = tested on: post-operative thermal hyperalgesia; assay: Post-operative pain model in rats (skin incision), thermal hyperalgesia; format: in vivo; settings: po; rat, p.o., acute dosing, 24 h post-injury; read-out: ED50, reversal of thermal hyperalgesia
Experimental: The response to acute thermal stimulation was determined using a commercially available paw thermal stimulator (UARDG, University of California, San Diego, Calif.). Rats were placed individually in Plexiglass cubicles mounted on a glass surface maintained at 30° C., and allowed a 30 min habituation period. A thermal stimulus, in the form of radiant heat emitted from a focused projection bulb, was then applied to the plantar surface of each hind paw. In each test session, each rat was tested in three sequential trials at approximately 5 min intervals. Paw withdrawal latencies (PWLs) were calculated as the mean of the two shortest latencies. An assay cut-off was set at 20.5 s.
As described by Brennan et al. [Brennan T J, Vandermeulen E P, Gebhart G F. Characterization of a rat model of incisional pain. Pain 1996; 64:493-501], a 1 cm longitudinal incision was made through the skin and fascia of the plantar aspect of the foot, starting 0.5 cm from the proximal edge of the heel and extending toward the toes. The plantaris muscle was elevated and incised longitudinally with origin and insertion of the muscle remaining intact. The skin was then closed with two 5-0 nylon mattress sutures. After surgery, the animals were allowed to recover and housed individually with soft bedding. Animals were tested for mechanical allodynia using von Frey hairs and for thermal hyperalgesia as described above. […]

[2] = tested on: MIA-induced osteoarthritic rats; assay: Osteoarthritic pain model in rats (MIA), hind limb grip force; format: in vivo, rat; settings: for ED50: po, p.o., acute dosing
Experimental: Unilateral knee joint osteoarthritis was induced in the rats by a single intraarticular (i.a.) injection of sodium monoiodoacetate (MIA) (Sigma, St. Louis, Mo.) (3 mg in 0.05 mL sterile isotonic saline) into the joint cavity using a 26 G needle under light (2-4%) halothane (Halocarbon Laboratories, River Edge, N.J.) anesthesia [Bove S E, Calcaterra S L, Brooker R M, Huber C M, Guzman R E, Juneau P L, et al. Weight bearing as a measure of disease progression and efficacy of anti-inflammatory compounds in a model of monosodium iodoacetate-induced osteoarthritis. Osteoarthritis Cartilage 2003; 11:821-30]. Following injection, the animals were allowed to recover from the effects of anesthesia (usually 5-10 min) before returning them to their home cages.
MIA-induced nociception can be assessed by measuring differences in weight bearing (WBD) or decrease in grip force (GF) several days to weeks following MIA injection [Bove S E, Calcaterra S L, Brooker R M, Huber C M, Guzman R E, Juneau P L, et al. Weight bearing as a measure of disease progression and efficacy of anti-inflammatory compounds in a model of monosodium iodoacetate-induced osteoarthritis. Osteoarthritis Cartilage 2003; 11:821-30; Fernihough J, Gentry C, Malcangio M, Fox A, Rediske J, Pellas T, et al. Pain related behaviour in two models of osteoarthritis in the rat knee. Pain 2004; 112:83-93].
In addition to weight-bearing differences, grip strength was also assessed in osteoarthritic rats approximately 21 days after MIA injection. Measurements of peak hind limb grip force were conducted by recording the maximum compressive force exerted on the hind limb strain gauge setup, in a commercially available grip force measurement system (Columbus Instruments, Columbus, Ohio). During testing, each rat was gently restrained by grasping around its rib cage and then allowed to grasp the wire mesh frame (10-12 cm^2) attached to the strain gauge. The experimenter then moved the animal in a rostral-to-caudal direction until the grip was broken. Each rat was sequentially tested twice at an approximately 2 min interval to obtain a raw mean grip force […]. These raw mean grip force data were in turn converted to a maximum hind limb compressive force (CFmax) (gram force)/kg body weight for each animal. A group of age-matched naïve animals was added to each experiment and the data obtained from the different dose groups for the compound being tested were compared to the naïve group.
Compound A was dissolved in 100% polyethylene glycol (PEG 400) for oral administration in a 2 mL/kg injection volume. Compounds B, C, and D were dissolved in 10% ethanol, 20% Tween 80 and 70% polyethylene glycol-400 for oral administration in a 2 mL/kg injection volume. All compounds were dosed orally (p.o.) 60 minutes before behavioral testing.
(§1) In the osteoarthritic pain model, animals were dosed twice-daily for 12 days using a dose that was non-efficacious following a single administration (e.g. 3 μmol/kg p.o. for Compound A). The animals were tested 1 hour after acute dosing (p.o.) and on day 12, 1 hour after oral dosing with either vehicle or the test compound.
The analgesic responses were shown as % effect relative to the healthy, untreated rats (naïve group).

[3] = tested on: inflammatory thermal hyperalgesia induced by intraplantar administration of CFA; assay: Inflammatory pain model in rats (CFA, thermal hyperalgesia); format: in vivo; settings: po; rat, p.o., acute dosing; read-out: ED50, reversal of inflammatory thermal hyperalgesia induced by CFA
Experimental: The response to acute thermal stimulation was determined using a commercially available paw thermal stimulator (UARDG, University of California, San Diego, Calif.). Rats were placed individually in Plexiglass cubicles mounted on a glass surface maintained at 30° C., and allowed a 30 min habituation period. A thermal stimulus, in the form of radiant heat emitted from a focused projection bulb, was then applied to the plantar surface of each hind paw. In each test session, each rat was tested in three sequential trials at approximately 5 min intervals. Paw withdrawal latencies (PWLs) were calculated as the mean of the two shortest latencies. An assay cut-off was set at 20.5 s. Unilateral inflammation was induced by injecting 150 μL of a 50% solution of complete Freund's adjuvant (CFA) (Sigma, St. Louis, Mo.) in physiological saline into the plantar surface of the right hind paw of the rat. The hyperalgesia to thermal stimulation was determined 2 days following CFA injection using the same apparatus as described above for the noxious acute thermal assay. Compound A was dissolved in 100% polyethylene glycol (PEG 400) for oral administration in a 2 mL/kg injection volume. Compounds B, C, and D were dissolved in 10% ethanol, 20% Tween 80 and 70% polyethylene glycol-400 for oral administration in a 2 mL/kg injection volume. […]

[4] = Plasma levels in osteoarthritic rats after acute and repeated dosing; format: in vivo, rat; settings: derived from modeling of PK/PD data from acute and chronic dosing studies
Experimental: as §1

- Plasma Levels, Chronic ([4]; 3 μmol/kg BID 12 days): 17** at 3 μmol/kg ng/mL
- EC50 ([4]; Rattus norvegicus, osteoarthritic rats): 0.085 µg/mL (≈ 0.244 µM)
SMILES: CC(C)(C)c1ccc2c(c1)CC[C@H]2NC(=O)Nc1cccc2[nH]ncc12 [Compound A, N-[(1R)-5-tert-butyl-2,3-dihydro-1H-inden-1-yl]-N′-1H-indazol-4-ylurea]
- ED50 [1]: 40 µmol/kg
- ED50 ([2]; Rattus norvegicus, grip force, MIA-induced osteoarthritic rats, read-out: Acute ED50 (μmol/kg; 95% Cl)): 8 µmol/kg
- % Efficacy at Reduced Dose, Chronic (BID, 12 days) ([2]; grip force, 3 μmol/kg p.o. BID 12 days, relative to naïve group): 62%
- % Efficacy at Reduced Dose, Acute ([2]; grip force, 3 μmol/kg p.o., 1 hour after acute dosing, relative to naïve group): 20%
- analgesic effects following repeated dosing vs acute dosing ([2]; grip force, BID 12 days, reduced dose): significantly increased
- ED50 ([2]; 480 h, rat, 20 days following MIA injection, read-out: ED50, reversal of decrease in grip force): 10 µmol/kg
- ED50 [3]: 10 µmol/kg
